Structures can show the parent of a compound that is named as a salt. A value given as a limit tells only on which side of the number the result lay.

One assay deals with ROCK2 (Homo sapiens, UniProt O75116). The assay can be described thus: ROCK2 kinase inhibition assay (LABCHIP 3000 Reader, FITC peptide substrate).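 Also: rho kinase reaction read by separating phosphorylated from unphosphorylated peptide on chip, with inhibition of kinase activity computed per concentration across a dose-response series.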
Chain of ROCK2 (O75116 whole entry, species assumed): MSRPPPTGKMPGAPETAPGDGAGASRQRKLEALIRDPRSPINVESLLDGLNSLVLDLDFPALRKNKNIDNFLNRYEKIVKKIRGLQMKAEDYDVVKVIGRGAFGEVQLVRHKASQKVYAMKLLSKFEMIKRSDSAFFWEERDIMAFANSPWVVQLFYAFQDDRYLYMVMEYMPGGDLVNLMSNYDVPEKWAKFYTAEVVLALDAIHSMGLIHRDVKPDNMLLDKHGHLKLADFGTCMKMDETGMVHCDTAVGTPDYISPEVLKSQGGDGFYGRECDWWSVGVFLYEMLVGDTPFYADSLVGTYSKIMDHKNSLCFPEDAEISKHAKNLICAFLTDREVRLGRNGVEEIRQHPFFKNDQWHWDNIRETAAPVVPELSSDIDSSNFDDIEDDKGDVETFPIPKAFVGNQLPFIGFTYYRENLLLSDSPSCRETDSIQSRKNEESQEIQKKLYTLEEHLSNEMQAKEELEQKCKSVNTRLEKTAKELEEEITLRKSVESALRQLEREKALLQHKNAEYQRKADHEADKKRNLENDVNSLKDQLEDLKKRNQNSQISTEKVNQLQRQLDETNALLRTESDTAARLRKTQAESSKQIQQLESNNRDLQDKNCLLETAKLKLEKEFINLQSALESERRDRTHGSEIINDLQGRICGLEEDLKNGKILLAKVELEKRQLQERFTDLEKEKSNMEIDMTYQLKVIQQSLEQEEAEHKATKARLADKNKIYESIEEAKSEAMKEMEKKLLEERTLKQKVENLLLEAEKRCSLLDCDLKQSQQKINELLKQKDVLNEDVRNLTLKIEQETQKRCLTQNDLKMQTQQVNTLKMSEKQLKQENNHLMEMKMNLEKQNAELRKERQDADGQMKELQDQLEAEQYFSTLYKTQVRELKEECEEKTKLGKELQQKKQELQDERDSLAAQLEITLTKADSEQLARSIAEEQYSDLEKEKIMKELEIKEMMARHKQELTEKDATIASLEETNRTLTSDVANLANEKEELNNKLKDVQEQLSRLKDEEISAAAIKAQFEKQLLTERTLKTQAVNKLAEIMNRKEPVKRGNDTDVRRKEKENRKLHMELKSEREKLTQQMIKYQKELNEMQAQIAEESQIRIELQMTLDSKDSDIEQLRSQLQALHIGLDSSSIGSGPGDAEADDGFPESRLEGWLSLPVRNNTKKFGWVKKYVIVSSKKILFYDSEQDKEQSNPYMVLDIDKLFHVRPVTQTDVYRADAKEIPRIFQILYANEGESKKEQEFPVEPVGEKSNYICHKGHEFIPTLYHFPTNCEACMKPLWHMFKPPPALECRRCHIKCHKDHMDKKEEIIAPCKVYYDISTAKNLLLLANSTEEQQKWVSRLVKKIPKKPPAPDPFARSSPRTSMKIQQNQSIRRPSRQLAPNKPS
Settings: not given
`Cc1ccn2c(C(=O)N[C@H]3CC4(C3)C[C@H](Oc3ncccc3C(N)=O)C4)cnc2c1` (stereo partly drawn) [Example 335, N-((aR)-6-((3-carbamoylpyridin-2-yl)oxy)spiro[3.3]heptan-2-yl)-7-methylimidazo[1,2-a]pyridine-3-carboxamide]: the IC50 was in the range of 5 to 50 nM.

Regarding `NC(=O)c1cccnc1O[C@H]1CC2(C[C@H](NC(=O)c3nn(C(F)F)c4cc(-c5cnn(C(F)F)c5)ccc34)C2)C1` (stereo partly drawn) [Example 112, N-((aR)-6-((3-carbamoylpyridin-2-yl)oxy)spiro[3.3]heptan-2-yl)-1-(difluoromethyl)-6-(1-(difluoromethyl)-1H-pyrazol-4-yl)-1H-indazole-3-caroxamide, trifluoroacettate], the IC50 was below 5 nM.

The compound `NC(=O)c1cccnc1O[C@H]1CC2(C[C@H](NC(=O)c3cnn4c(C5CC5)c(OCC5(O)CC(F)(F)C5)ccc34)C2)C1` (stereo partly drawn) [Example 415, N-((aR)-6-((3-carbamoylpyridin-2-yl)oxy)spiro[3.3]heptan-2-yl)-7-cyclopropyl-6-((3,3-difluoro-1-hydroxycyclobutyl)methoxy)pyrazolo[1,5-a]pyridine-3-carboxamide, TFA] returned an IC50 below 5 nM.

`CS(=O)(=O)c1cccc(C(=O)N[C@H]2CC3(C2)C[C@H](Oc2ncccc2C(N)=O)C3)c1` (stereo partly drawn) [Example 109, 2-((aR)-6-(3-(methylsulfonyl)benzamido)spiro[3.3]heptan2-- yl)oxy)nicotinamide, trifluoroacetate] came in with an IC50 of 50 to 250 nM.

The compound `[H][C@]1(Oc2ncccc2C(N)=O)C[C@@]2(C[C@H](NC(=O)c3cnc4c(OC)cc(Cl)nn34)C2)C1` (stereo partly drawn) [Example 60, N-((aR)-6-((3-carbamoylpyridin-2-yl)oxy)spiro[3.3]heptan-2-yl)-6-chloro-8-methoxyimidazo[1,2-b]pyridazine-3-carboxamide] returned a half-inhibitory concentration (IC50) of 250 to 2500 nM.

In turn, `CC(C)(O)COc1ccc2c(C(=O)NC3CC4(C3)CC(Oc3cc(-c5cc(CO)cc(CO)c5)ccc3C(N)=O)C4)cnn2c1` (stereo not shown) [Example 258, N-(6-((4-carbamoyl-3′,5′-bis(hydroxymethyl)-[1,1′-biphenyl]-3-yl)oxy)spiro[3.3]heptan-2-yl)-6-(2-hydroxy-2-methylpropoxy)pyrazolo[1,5-a]pyridine-3-carboxamide] had a half-inhibitory concentration (IC50) below 5 nM.

Consider `CC(C)c1c(OCC(C)(C)O)ccc2c(C(=O)N[C@H]3CC4(C3)C[C@H](Oc3ncccc3C(N)=O)C4)cnn12` (stereo partly drawn) [Example 320, N-((aR)-6-((3-carbamoylpyridin-2-yl)oxy)spiro[3.3]heptan-2-yl)-6-(2-hydroxy-2-methylpropoxy)-7-isopropylpyrazolo[1,5-a]pyridine-3-carboxamide], for which the IC50 was in the range of 5 to 50 nM.

For the compound `CC(C)(O)COc1ccc2c(C(=O)NC3CC4(C3)CC(Oc3cc(-c5ccc(F)c(-c6nnn[nH]6)c5)ccc3C(N)=O)C4)cnn2c1` (stereo not shown) [Example 299, N-(6-((4-carbamoyl-4′-fluoro-3′-(1H-tetrazol-5-yl)-[1,1′-biphenyl]-3-yl)oxy)spiro[3.3]heptan-2-yl)-6-(2-hydroxy-2-methylpropoxy)pyrazolo[1,5-a]pyridine-3-carboxamide], the IC50 lay in the range of 5 to 50 nM.

For `NC(=O)c1cccnc1O[C@H]1CC2(C[C@H](NC(=O)c3cn4cc(Cl)ccc4n3)C2)C1` (stereo partly drawn) [Example 153, N-((aR)-6-((3-carbamoylpyridin-2-yl)oxy)spiro[3.3]heptan-2-yl)-6-chloroimidazo[1,2-a]pyridine-2-carboxamide, trifluoroacetate], the concentration for half-maximal inhibition (IC50) was in the range of 250 to 2500 nM.

Take `NC(=O)c1cccnc1O[C@H]1CC2(C[C@H](NC(=O)c3cnn4cc(N5CC(CO)(CO)C5)ccc34)C2)C1` (stereo partly shown) [Example 355]: the IC50 lay within 50 to 250 nM.

The compound `NC(=O)c1cccnc1O[C@H]1CC2(C[C@H](NC(=O)c3cnc4c(C5CC5)cccn34)C2)C1` (stereo partly drawn) [Example 170, N-((aR)-6-((3-carbamoylpyridin-2-yl)oxy)spiro[3.3]heptan-2-yl)-8-cyclopropylimidazo[1,2-a]pyridine-3-carboxamide, Trifluoroacetate] returned an IC50 of 50 to 250 nM.

Consider `NC(=O)c1cccnc1O[C@H]1CC2(C[C@H](NC(=O)c3cnn4cc(OC5CC(F)(F)C5)ccc34)C2)C1` (stereo partly drawn) [Example 350, N-((aR)-6-((3-carbamoylpyridin-2-yl)oxy)spiro[3.3]heptan-2-yl)-6-(3,3-difluorocyclobutoxy)pyrazolo[1,5-a]pyridine-3-carboxamide], for which the IC50 was in the range of 5 to 50 nM.

`NC(=O)c1ccccc1O[C@H]1CC2(C[C@H](NC(=O)c3cnn4cc(OC5CCS(=O)(=O)CC5)ccc34)C2)C1` (stereo partly drawn) [Example 28, N-[(aR)-6-(2-carbamoylphenoxy)spiro [3.3]heptan-2-yl]-6-[(1,1-dioxo-1λ^6-thian-4-yl)oxy]pyrazolo [1,5-a]pyridine-3-carboxamide] yielded an IC50 below 5 nM.

The compound `CC(F)(F)COc1ccc2c(C(=O)N[C@H]3CC4(C3)C[C@H](Oc3ncccc3C(N)=O)C4)cnn2c1-c1cn[nH]c1` (stereo partly drawn) [Example 310, N-((aR)-6-((3-carbamoylpyridin-2-yl)oxy)spiro[3.3]heptan-2-yl)-6-(2,2-difluoropropoxy)-7-(1H-pyrazol-4-yl)pyrazolo[1,5-a]pyridine-3-carboxamide] returned a 50% inhibitory concentration (IC50) below 5 nM.

In the case of `CC(C)(O)COc1ccc2c(C(=O)NC3CC4(C3)CC(Oc3ncncc3C(N)=O)C4)cnn2c1` (stereo not shown) [Example 8, N-(6-((5-carbamoylpyrimidin-4-yl)oxy)spiro[3.3]heptan-2-yl)-6-(2-hydroxy-2-methylpropoxy)pyrazolo[1,5-a]pyridine-3-carboxamide], the half-maximal inhibitory concentration (IC50) was in the range of 50 to 250 nM.

The compound `NC(=O)c1cccnc1O[C@H]1CC2(C[C@H](NC(=O)c3cnn4cc(OC5CCC5)ccc34)C2)C1` (stereo partly drawn) [Example 338, N-((aR)-6-((3-carbamoylpyridin-2-yl)oxy)spiro[3.3]heptan-2-yl)-6-cyclobutoxypyrazolo[1,5-a]pyridine-3-carboxamide] came in with an IC50 of 5 to 50 nM.

`NC(=O)c1ccccc1O[C@H]1CC2(C[C@H](NC(=O)c3cnn4ccc(OCCN5CCOCC5)cc34)C2)C1` (stereo partly drawn) [Example 20, N-[(aR)-6-(2-carbamoylphenoxy)spiro[3.3]heptan-2-yl]-5-[2-(morpholin-4-yl)ethoxy]pyrazolo[1,5-a]pyridine-3-carboxamide] registered an IC50 of 5 to 50 nM.

With `CC(C)(O)COc1ccc2c(C(=O)NC3CC4(C3)CC(Oc3cc(N5CCCC5)ccc3C(N)=O)C4)cnn2c1` (stereo not shown) [Example 227, N-(6-(2-carbamoyl-5-(pyrrolidin-1-yl)phenoxy)spiro[3.3]heptan-2-yl)-6-(2-hydroxy-2-methylpropoxy)pyrazolo[1,5-a]pyridine-3-carboxamide], the IC50 lay within 5 to 50 nM.

For `NC(=O)c1ccccc1O[C@H]1CC2(C[C@H](NC(=O)c3cnc4cc(N5CCC(F)(F)C5)ccn34)C2)C1` (stereo partly drawn) [Example 25, N-[(aR)-6-(2-carbamoylphenoxy)spiro[3.3]heptan-2-yl)-7-(3,3-difluoropyrrolidin-1-yl)imidazo[1,2-a]pyridine-3-carboxamide], the IC50 was below 5 nM.

`NC(=O)c1cccnc1O[C@H]1CC2(C[C@H](NC(=O)c3c(C(F)(F)F)nc4ccc(Cl)cn34)C2)C1` (stereo partly drawn) [Example 139, N-((aR)-6-((3-carbamoylpyridin-2-yl)oxy)spiro[3.3]heptan-2-yl)-6-chloro-2-(trifluoromethyl) imidazo[1,2-a]pyridine-3-carboxamide, trifluoroacetate] gave a 50% inhibitory concentration (IC50) of 250 to 2500 nM.

`[H][C@]1(Oc2ncccc2C(N)=O)C[C@@]2(C[C@H](NC(=O)c3cnc4cc(Cl)ccn34)C2)C1` (stereo partly drawn) [Example 361, N-((aR)-6-((3-carbamoylpyridin-2-yl)oxy)spiro[3.3]heptan-2-yl)-7-chloroimidazo[1,2-a]pyridine-3-carboxamide] showed a 50% inhibitory concentration (IC50) of 50 to 250 nM.

Turning to `[H][C@]1(Oc2ncccc2C(N)=O)C[C@@]2(C[C@H](NC(=O)c3nn(C(C)(C)C(N)=O)c4cc(-c5cnn(C)c5)ccc34)C2)C1` (stereo partly drawn) [Example 408, 1-(1-amino-2-methyl-1-oxopropan-2-yl)-N-((aR)-6-((3-carbamoylpyridin-2-yl)oxy)spiro[3.3]heptan-2-yl)-6-(1-methyl-1H-pyrazol-4-yl)-1H-indazole-3-carboxamide, TFA], the IC50 lay within 5 to 50 nM.

As for `NC(=O)c1cccnc1OC1CC2(CC(NC(=O)c3cnn4cc(OCCC(F)(F)F)ccc34)C2)C1` (stereo not shown) [Example 10, N-(6-((3-carbamoylpyridin-2-yl)oxy)spiro[3.3]heptan-2-yl)-6-(3,3,3-trifluoropropoxy)pyrazolo[1,5-a]pyridine-3-carboxamide], the IC50 fell in the range of 5 to 50 nM.

`CC(C)(O)COc1ccc2c(C(=O)NC3CC4(C3)CC(Oc3cc(-c5cc(C(=O)O)cc(C(=O)O)c5)ccc3C(N)=O)C4)cnn2c1` (stereo not shown) [Example 255, 4′-carbamoyl-3′-((6-(6-(2-hydroxy-2-methylpropoxy)pyrazolo[1,5-a]pyridine-3-carboxamido)spiro[3.3]heptan-2-yl)oxy)-[1,1′-biphenyl]-3,5-dicarboxylic acid] gave a half-inhibitory concentration (IC50) of 5 to 50 nM.

In the case of `Cn1c(-c2nc(C(=O)N[C@H]3CC4(C3)C[C@H](Oc3ncccc3C(N)=O)C4)cs2)nc2ccccc21` (stereo partly drawn) [Example 146, N-((aR)-6-((3-carbamoylpyridin-2-yl)oxy)spiro[3.3]heptan-2-yl)-2-(1-methyl-1H-benzo[d]imidazol-2-yl)thiazole-4-carboxamide, trifluoroacetate], the IC50 lay within 50 to 250 nM.

For the compound `[H][C@]1(Oc2ncccc2C(N)=O)C[C@@]2(C[C@H](NC(=O)c3cnn4c(C5CC5)c(OCC(C)(C)O)ccc34)C2)C1` (stereo partly drawn) [Example 42, N-((aR)-6-((3-carbamoylpyridin-2-yl)oxy)spiro[3.3]heptan-2-yl)-7-cyclopropyl-6-(2-hydroxy-2-methylpropoxy)pyrazolo[1,5-a]pyridine-3-carboxamide], the IC50 is below 5 nM.

Staying with this assay, now noted: read-out: ROCK2 Activity (ROCK2 IC50); 5 μM ATP, 1.5 μM peptide substrate, pH 7.5.
Take “N-((aR)-6-((3- carbamoylpyridin-2- yl)oxy))spiro[3.3] heptan-2-yl)- 6-((E)-3,3,3- trifluoroprop-1- en-1-yl) pyrazolo[1,5- a]pyridine-3- carboxamide, trifluoroacetate [Example 116]”: the IC50 is 5 to 50 nM.

Regarding `NC(=O)c1cccnc1OC1CC2(CC(NC(=O)c3cc(Br)cc(C(F)(F)F)c3)C2)C1` [Example 427, 2-(((aR)-6-(3-bromo-5-(trifluoromethyl)benzamido)spiro[3.3]heptan-2-yl)oxy)nicotinamide], the half-maximal inhibitory concentration (IC50) lay in the range of 5 to 50 nM.

As a reminder, the IC50 is the concentration that inhibits the measured activity by half.

These data come from patent publication US10829501B2 (BRISTOL-MYERS SQUIBB COMPANY, priority 2016, dated 2020).
